# Measurements reported in patent publication US6864253B2, “Benzo[4,5]thieno[2,3-c]pyridine and Benzo[4,5]furo[2,3-c]pyridine Derivatives Useful as Inhibitors of Phosphodiesterase” (Orth-McNeil Pharmaceutical, Inc., priority 2000, dated 2005).
# Columns and labels:
# PDEV [1] = biological target: T1, PDEV (Homo sapiens, UniProt O76074); assay: Cyclic nucleotide phosphodiesterase (PDE) assay, inhibition of PDEV isolated from human tissue; type: biochemical; conditions: footnote a: tested using human tissue; for IC50: PDEV
# T1 construct: rabbit or human tissues were homogenized in an ice-cold buffer solution; from tissue; host or cells: human tissue
# Protocol: PDEV was isolated from rabbit and human tissues according to the protocol described by Boolell et al. (Boolell, M., Allen, M. J., Ballard, S. A., Ge[o-Attee, S., Muirhead, G. J., Naylor, A. M., Osterloh, I. H., and Gingell, C) in International Journal of Impotence Research 1996 8, 47-52 with minor modifications.
# Briefly, rabbit or human tissues were homogenized in an ice-cold buffer solution containing 20 mM HEPES (pH 7.2), 0.25M sucrose, 1 mM EDTA, and 1 mM phenylmethylsulphonyl fluoride (PMSF). The homogenates were centrifuged at 100,000 g for 60 minutes at 4° C. The supernatant was filtered through […] filter and loaded on a Pharmacia Mono Q anion exchange column (1 ml bed volume) that was equilibrated with 20 mM HEPES, 1 mM EDTA and 0.5 mM PMSF. After washing out unbound proteins, the enzymes were eluted with a linear gradient of 100-600 mM NaCl in the same buffer (35 to 50 ml total, depending on the tissue. Enzymes from the skeletal muscle, corpus cavernosum, retina, heart and platelet were eluted with 35, 40, 45, 50, and 50 ml respectively.) The column was run at a flow rate of 1 ml/min and 1 ml fractions were collected. The fractions comprising various PDE activities were pooled separately and used in later studies.
# The PDE assay was carried out as described by Thompson and Appleman in Biochemistry 1971 10, 311-316 with minor modifications, as noted below.
# The assays were adapted to a 96-well format. The enzyme was assayed in 5 mM MgCl2, 15 mM Tris HCl (pH 7.4), 0.5 mg/ml bovine serum albumin, 1 μM cGMP or cAMP, 0.1 μCi [^3H]-cGMP or [^3H]-cAMP, and 2-10 μl of column elution. The total volume of the assay was 100 μl. The reaction mixture was incubated at 30° C. for 30 minutes. The reaction was stopped by boiling for 1 minute and then cooled down on ice. The resulting [^3H] 5′-mononucleotides were further converted to uncharged [^3H]-nucleosides by adding 25 μl 1 mg/ml snake venom (Ophiophagus hannah) and incubating at 30° C. for 10 minute. The reaction was stopped by the addition of 1 ml Bio-Rad AG1-X2 resin slurry (1:3). All the charged nucleotides were bound by the resin and only the uncharged [^3H]-nucleosides remained in the supernatant after centrifuging. An aliquot of 200 μl was taken and counted by liquid scintillation. PDE activity was expressed as pmol cyclic nucleotide hydrolyzed/min/ml of enzyme preparation.
# Inhibitor studies were carried out in assay buffer with a final concentration of 10% DMSO. Under these conditions, the hydrolysis of product increased with time and enzyme concentration in a linear fashion.
# erectile dysfunction = conditions: cited from earlier work
# PDEV [2] = biological target: T2, PDEV (Oryctolagus cuniculus, UniProt G1SX67); assay: In vitro determination of Ki for phosphodiesterase inhibitors (IC50/Ki, 30 nM 3H-cGMP); type: biochemical; conditions: printed in the % INH column as Ki value
# Protocol: The assay was adapted to a 96-well format. Phosphodiesterase was assayed in 5 mM MgCl2, 15 mM Tris HCl (pH 7.4), 0.5 mg/ml bovine serum albumin, 30 nM ^3H-cGMP and test compound at various concentrations. […] For all measurements, the test compound was dissolved and diluted in 100% DMSO (2% DMSO in assay). The total volume of the assay was 100 μl. The reaction mixture was incubated at 30° C. for 90 minutes. The reaction was stopped by boiling for 1 minute and then immediately cooled by transfer to an ice bath. To each well was then added 25 μl 1 mg/ml snake venom (Ophiophagus hannah) and the reaction mixture incubating at 30° C. for 10 minute. The reaction was stopped by the addition of 1 ml Bio-Rad AG1-X2 resin slurry (1:3). An aliquot of 200 μl was taken and counted by liquid scintillation.
# The % inhibition of the maximum substrate conversion (by the enzyme in the absence of inhibitor) was calculated for each test compound concentration. Using GraphPad Prism′s nonlinear regression analysis (sigmoidal dose response), the % inhibition vs log of the test compound concentration was plotted to determine the IC50. Under conditions where substrate concentration <<Km of the enzyme (Km=substrate concentration at which half of the maximal velocity of the enzyme is achieved), Ki is equivalent to the IC50 value. […]
# PDEV [3] = biological target: T2, PDEV; assay: Cyclic nucleotide phosphodiesterase (PDE) assay, inhibition of PDEV isolated from rabbit tissue; type: biochemical; conditions: 10 μM test compound, rabbit PDEV
# How it was run: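 PDEV came from rabbit tissue homogenate, using Mono Q anion-exchange fractions. Reactions used 1 μM cGMP or cAMP with [3H]-tracer, 5 mM MgCl2 and Tris pH 7.4 at 30 °C for 30 min; snake venom converted product to [3H]-nucleosides, read by scintillation after resin separation. Inhibitors ran in 10% DMSO final.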
compound,measurement,setting,value
c1cnc(N2CCc3c([nH]c4ccccc34)C2c2ccc3c(c2)OCO3)nc1 (stereo not drawn) [Cmpd 168],IC50,PDEV [1],2150 nM
"CCCc1nn(C)c2c(=O)[nH]c(-c3cc(S(=O)(=O)N4CCN(C)CC4)ccc3OCC)nc12 [sildenafil, 5-[2-ethoxy-5-(4-methylpiperazin-1-ylsulphonyl)phenyl]-1-methyl-3-n-propyl-6,7-dihydro-1H-pyrazolo[4,3-d]pyrimidin-7-one]","improved sexual function, share of men",erectile dysfunction; men who suffer from ED of psychogenic or organic etiology,about 70%
same,"improved erections, share of patients","erectile dysfunction; patients who had undergone a radical prostatectomy, 15% on placebo",43%
COc1ccc(-c2cnc(N3CCc4c([nH]c5ccccc45)C3c3ccc4c(c3)CCO4)nc2)cc1 (stereo not drawn) [Cmpd 174],IC50,PDEV [1],150 nM
COc1ccc(-c2cnc(N3CC(=O)c4c([nH]c5ccccc45)C3c3ccc4c(c3)OCO4)nc2)cc1OC (stereo not drawn) [Cmpd 157],IC50,PDEV [1],8.7 nM
"Cc1ncc(-c2cnc(N3CCc4c([nH]c5ccccc45)C3c3ccc4c(c3)CCO4)nc2)n1C (stereo not drawn) [Cmpd 190, 1-(2,3-Dihydro-benzofuran-5-yl)-2-[5-(2,3-dimethyl-3H-imidazol-4-yl)-pyrimidin-2-yl]-2,3,4,9-tetrahydro-1H-β-carboline]",Ki,PDEV [2],14.2 nM
c1ccc2[nH]c(N3CCc4c([nH]c5ccccc45)C3c3ccc4c(c3)OCO4)nc2c1 (stereo not drawn) [Cmpd 172],% INH @ 10 μM,PDEV [1]; 10 μM test compound,44^a %
c1ccc(-c2cnc(N3CCc4c([nH]c5ccccc45)C3c3ccc4c(c3)OCO4)nc2)nc1 (stereo not drawn) [Cmpd 183],IC50,PDEV [1],122 nM
"COc1ccc(-c2cnc(N3CCc4c([nH]c5ccccc45)C3c3ccc4c(c3)OCO4)nc2)cc1OC (stereo not drawn) [Cmpd 7, 1-(3,4-Methylenedioxyphenyl)-2-[5-(3,4-dimethoxyphenyl)pyrimidin-2-yl]-2,3,4,9-tetrahydro-1H-β-carboline]",inhibition at 10 µM,PDEV [3]; read-out: % Inh @ 10 μM (rabbit),91%
same,melting point,,173 to 175 °C
COc1ccc(-c2cnc(N3CC(=O)c4c([nH]c5ccccc45)C3c3ccc4c(c3)OCO4)nc2)cc1 (stereo not drawn) [Cmpd 162],IC50,PDEV [1],24 nM
COc1ccc(-c2cnc(N3CCc4c([nH]c5ccccc45)C3c3ccc4c(c3)OCCO4)nc2)cc1 (stereo not drawn) [Cmpd 184],IC50,PDEV [1],640 nM
"c1ccc(-c2ccc(N3CCc4c([nH]c5ccccc45)C3c3ccc4c(c3)CCO4)nc2)nc1 (stereo not drawn) [Cmpd 191, 2-[2,3′]Bipyridinyl-6′-yl-1-(2,3-dihydro-benzofuran-5-yl)-2,3,4,9-tetrahydro-1H-β-carboline]",Ki,PDEV [2],0.69 nM
COc1ccc(C2c3[nH]c4ccccc4c3CCN2C(=O)c2cc(C(C)(C)C)nn2Cc2ccccc2)cc1OC (stereo not drawn) [Cmpd 134],% Inh @ 10 μM (rabbit),PDEV [3],5%
CC(C)(C)c1cc(C(=O)N2CCc3c([nH]c4ccccc34)C2c2ccc(Cl)c(Cl)c2)n(Cc2ccccc2)n1 (stereo not drawn) [Cmpd 133],% Inh @ 10 μM (rabbit),PDEV [3],1%
